Reference: ChEMBL document CHEMBL1201862, “PubChem BioAssay data set” (2004)
Activity calls are given as the source filed them.

What was measured:
HEK293 = experiment: EBV LMP1 TES2 canonical NF-kB signalling blockers – cell-based, HEK293, luciferase, cherry-pick, dose response (AID 588343); format: functional; settings: Homo sapiens
[1] = THP-1 cell cytotoxicity, dose response, cytotoxicity control for non-replicating M. tuberculosis project (AID 489025); format: functional
cells = format: functional
[2] = fluconazole-exposed Candida albicans growth modulators – fluorescence, retest, confirmation (AID 2467); format: functional, cell-based
[3] = biological target: T1, Intestinal-type alkaline phosphatase (Homo sapiens, UniProt P09923); experiment: human intestinal alkaline phosphatase activators, dose response, biochemical, luminescence, uHTS hits (AID 463120); format: functional
T1 sequence (P09923 whole entry): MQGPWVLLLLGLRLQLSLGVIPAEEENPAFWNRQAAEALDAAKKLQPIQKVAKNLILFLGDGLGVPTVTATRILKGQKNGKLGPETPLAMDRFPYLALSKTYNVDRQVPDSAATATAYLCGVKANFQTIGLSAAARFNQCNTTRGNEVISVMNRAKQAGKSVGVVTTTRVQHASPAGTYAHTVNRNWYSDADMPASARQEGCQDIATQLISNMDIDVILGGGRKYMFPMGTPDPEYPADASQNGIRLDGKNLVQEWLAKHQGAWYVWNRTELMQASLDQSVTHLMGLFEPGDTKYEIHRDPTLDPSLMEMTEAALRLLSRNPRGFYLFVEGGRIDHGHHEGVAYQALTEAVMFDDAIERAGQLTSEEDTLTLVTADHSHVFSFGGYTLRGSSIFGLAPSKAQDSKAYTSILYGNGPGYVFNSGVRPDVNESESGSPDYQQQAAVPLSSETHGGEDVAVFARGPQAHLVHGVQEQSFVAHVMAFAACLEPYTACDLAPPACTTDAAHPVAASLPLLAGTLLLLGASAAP

[4] = Luminescence Cell-Based Dose Response HTS to Identify Inhibitors of 5'UTR Stem-Loop Driven Prion Protein mRNA Translation in H4 Neuroglioblastoma Cells. [Related pubchem assays: 1827 (Project Summary), 1813 (Primary HTS)]; format: functional
[5] = biological target: Heat shock protein HSP 90-alpha (Homo sapiens, UniProt P07900); format: functional, organism-based
BJ [6] = experiment: cells; format: functional, cell-based; settings: Homo sapiens
BJ [7] = experiment: BJ-TERT-LT-ST fibroblast viability loss – cell-based, RAS-independent, luminescence, dose response (AID 1935); format: functional; settings: Homo sapiens;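 further: BJ fibroblasts immortalized with TERT plus LT and ST oncogenes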
[8] = viability loss of HPDE-C7K cells – cell-based, fluorescence, HTS, primary screen (AID 431); format: functional; settings: Homo sapiens
[9] = HPDE-C7 pancreatic duct cell viability loss – fluorescence, HTS (AID 430); format: functional, cell-based; settings: Homo sapiens
[10] = biological target: T2, Alkaline phosphatase, tissue-nonspecific isozyme (Homo sapiens, UniProt P05186); experiment: activation of tissue-nonspecific alkaline phosphatase – biochemical, TNAP isozyme, human IAP uHTS hits, selectivity assay for human IAP activator project, dose response (AID 488886); format: functional;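 further: potency of compounds raising TNAP activity as a selectivity check on IAP activators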
T2 sequence (P05186 whole entry): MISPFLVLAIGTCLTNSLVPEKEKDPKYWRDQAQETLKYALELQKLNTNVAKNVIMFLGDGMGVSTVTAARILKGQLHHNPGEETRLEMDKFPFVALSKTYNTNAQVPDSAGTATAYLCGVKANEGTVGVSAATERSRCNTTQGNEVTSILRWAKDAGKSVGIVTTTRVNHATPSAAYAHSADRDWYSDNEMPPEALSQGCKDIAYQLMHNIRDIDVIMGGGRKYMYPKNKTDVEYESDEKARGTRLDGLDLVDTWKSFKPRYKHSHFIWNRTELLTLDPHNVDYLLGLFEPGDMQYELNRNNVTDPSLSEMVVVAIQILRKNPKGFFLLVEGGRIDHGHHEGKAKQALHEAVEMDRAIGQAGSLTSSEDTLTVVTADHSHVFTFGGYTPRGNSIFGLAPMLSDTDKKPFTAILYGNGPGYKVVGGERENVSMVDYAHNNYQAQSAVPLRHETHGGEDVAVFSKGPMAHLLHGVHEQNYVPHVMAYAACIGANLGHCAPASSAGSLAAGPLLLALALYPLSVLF

[11] = biological target: Intestinal-type alkaline phosphatase (Mus musculus, UniProt P24822); experiment: PubChem AID 488874; format: functional
Intestinal-type alkaline phosphatase (Mus musculus, UniProt P24822), sequence (P24822 whole entry): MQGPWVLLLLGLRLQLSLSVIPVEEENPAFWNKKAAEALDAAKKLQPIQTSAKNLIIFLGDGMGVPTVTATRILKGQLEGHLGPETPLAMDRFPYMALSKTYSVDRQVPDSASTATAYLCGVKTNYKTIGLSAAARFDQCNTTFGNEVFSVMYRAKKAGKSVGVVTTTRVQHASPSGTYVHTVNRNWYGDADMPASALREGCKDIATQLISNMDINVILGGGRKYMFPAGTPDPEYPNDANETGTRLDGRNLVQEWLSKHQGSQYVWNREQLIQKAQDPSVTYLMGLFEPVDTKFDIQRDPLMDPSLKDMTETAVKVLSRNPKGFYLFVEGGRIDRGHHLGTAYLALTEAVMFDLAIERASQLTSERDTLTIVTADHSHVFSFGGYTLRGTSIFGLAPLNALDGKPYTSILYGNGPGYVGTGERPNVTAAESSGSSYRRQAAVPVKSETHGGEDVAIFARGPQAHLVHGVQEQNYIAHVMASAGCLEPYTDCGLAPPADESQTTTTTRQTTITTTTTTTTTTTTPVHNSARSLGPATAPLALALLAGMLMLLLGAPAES

[12] = HepG2 cell cytotoxicity, dose response, cytotoxicity control for non-replicating M. tuberculosis project (AID 489018); format: functional; settings: Mycobacterium tuberculosis
[13] = biological target: T1, Intestinal-type alkaline phosphatase; experiment: activation of human intestinal alkaline phosphatase – biochemical, luminescent, uHTS hits, set 2, dose response (AID 488817); format: functional;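 further: potency of activators that raise enzyme activity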
[14] = HEK-293T viability loss after treatment – luminescence, T-cell screen hits, cytotoxicity control for TCR NF-kB inhibitor project, dose response (AID 489026); format: functional, cell-based;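 further: cells exposed to compound about 14 hours before the viability readout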
[15] = DRD fibroblast viability loss – cell-based, non-viral oncogenic, luminescence, dose response (AID 1934); format: functional; settings: Homo sapiens
[16] = alpha-synuclein stem-loop luciferase translation blockers – H4 neuroglioma cells, luminescence, confirmation (AID 1988); format: functional, cell-based
Nonstructural protein 1 = Nonstructural protein 1 (Influenza A virus, UniProt Q194T2); format: functional, Influenza A virus (A/California/07/2009(H1N1))
Nonstructural protein 1, sequence (Q194T2 whole entry): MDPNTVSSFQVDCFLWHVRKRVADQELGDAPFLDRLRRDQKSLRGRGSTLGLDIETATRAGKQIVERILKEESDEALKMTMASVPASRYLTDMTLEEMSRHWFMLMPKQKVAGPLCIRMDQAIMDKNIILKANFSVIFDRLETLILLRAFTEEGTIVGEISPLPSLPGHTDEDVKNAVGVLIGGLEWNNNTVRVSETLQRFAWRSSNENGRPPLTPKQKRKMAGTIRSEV

[17] = MIN6 cell viability loss – mouse insulinoma, cytotoxicity control, dose response (AID 2122); format: functional;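 further: confirmatory high-throughput counterscreen run to flag cytotoxic compounds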
BJ [18] = experiment: BJ-TERT fibroblast viability loss – cell-based, RAS-independent, luminescence, dose response (AID 1933); format: functional; settings: Homo sapiens
[19] = decrease of insulin promoter-GFP reporter – imaging, high-content screening, mouse beta cells (AID 1628); format: functional; settings: MIN6
INS1 = experiment: INS-1E survival protection against cytokine death – cell-based, luminescence, retest, dose response (AID 449756); format: functional; settings: Rattus norvegicus;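 further: cell death triggered by IL-1 beta plus TNF-alpha plus IFN-gamma mixture; protective hits raise ATP signal compared with cytokine alone wells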
[20] = NIH-3T3 fibroblast cytotoxicity, dose response, cytotoxicity control, cell-based, fluorescence, Alamar Blue, secondary assay (AID 2327); format: functional;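 further: NIH-3T3 mouse fibroblasts cultured with fluconazole at 8 µg/mL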
[21] = Vero E6 cell cytotoxicity, dose response, cytotoxicity control for non-replicating M. tuberculosis project, secondary assay (AID 492998); format: functional, VeroE6; settings: Vero C1008
[22] = luciferase reporter signal suppression in cells – H4 neuroglioma cells, luminescence, dose response (AID 1990); format: functional, cell-based
[23] = Luminescence-based dose response cell-based high throughput screening assay for cytotoxic compounds using the IEC-6 intestinal epithelial cell line. [Related pubchem assays: 1858 (Summary AID.), 1825 (Counterscreen.), 1907 (Confirmation screen.)]; format: functional
Cannabinoid receptor 1 [24] = biological target: T3, Cannabinoid receptor 1 (Homo sapiens, UniProt P21554); experiment: SAR analysis of agonists of the Cannabinoid Receptor 1 using an Image-Based Assay - Set 2. [Related pubchem assays (depositor defined):AID2013, AID2026]; format: functional
T3 sequence (P21554 whole entry): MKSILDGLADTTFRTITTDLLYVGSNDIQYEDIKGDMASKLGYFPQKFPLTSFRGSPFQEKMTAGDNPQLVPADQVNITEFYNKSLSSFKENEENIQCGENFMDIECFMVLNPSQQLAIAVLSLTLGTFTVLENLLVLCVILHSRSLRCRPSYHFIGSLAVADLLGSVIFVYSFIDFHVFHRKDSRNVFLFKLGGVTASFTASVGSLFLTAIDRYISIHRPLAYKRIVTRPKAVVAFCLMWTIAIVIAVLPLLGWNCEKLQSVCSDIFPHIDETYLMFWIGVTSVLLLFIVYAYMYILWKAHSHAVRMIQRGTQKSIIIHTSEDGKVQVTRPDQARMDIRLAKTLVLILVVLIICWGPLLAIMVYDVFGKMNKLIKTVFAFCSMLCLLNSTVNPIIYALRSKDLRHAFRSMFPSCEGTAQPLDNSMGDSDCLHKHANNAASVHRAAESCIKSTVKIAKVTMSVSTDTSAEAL

Cannabinoid receptor 1 [25] = biological target: T3, Cannabinoid receptor 1; experiment: SAR analysis of antagonists of the Cannabinoid Receptor 1 using an Image-Based Assay - Set 2. [Related pubchem assays (depositor defined):AID2013, AID2026]; format: functional
Cannabinoid receptor 2 [26] = biological target: T4, Cannabinoid receptor 2 (Homo sapiens, UniProt P34972); experiment: SAR analysis of antagonists of the Cannabinoid Receptor 2 using an Image-Based Assay. [Related pubchem assays (depositor defined):AID2013, AID2026]; format: functional
T4 sequence (P34972 whole entry): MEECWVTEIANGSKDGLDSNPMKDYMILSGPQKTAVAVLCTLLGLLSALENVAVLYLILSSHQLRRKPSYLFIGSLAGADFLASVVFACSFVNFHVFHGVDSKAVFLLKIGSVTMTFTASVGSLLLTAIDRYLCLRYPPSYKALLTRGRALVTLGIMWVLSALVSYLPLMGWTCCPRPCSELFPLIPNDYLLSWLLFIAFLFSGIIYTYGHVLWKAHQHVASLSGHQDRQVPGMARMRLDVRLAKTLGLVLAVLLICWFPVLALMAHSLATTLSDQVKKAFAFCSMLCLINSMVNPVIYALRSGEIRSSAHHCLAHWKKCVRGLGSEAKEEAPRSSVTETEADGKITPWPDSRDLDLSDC

Cannabinoid receptor 2 [27] = biological target: T4, Cannabinoid receptor 2; experiment: SAR analysis of agonists of the Cannabinoid Receptor 2 using an Image-Based Assay. [Related pubchem assays (depositor defined):AID2013, AID2026]; format: functional
[28] = biological target: T5, G-protein coupled receptor 35 (Homo sapiens, UniProt Q9HC97); experiment: SAR analysis of Antagonists of the GPR35 Receptor using an Image-Based Assay - Set 3. [Related pubchem assays (depositor defined):AID2013, AID2026]; format: functional
T5 sequence (Q9HC97 whole entry): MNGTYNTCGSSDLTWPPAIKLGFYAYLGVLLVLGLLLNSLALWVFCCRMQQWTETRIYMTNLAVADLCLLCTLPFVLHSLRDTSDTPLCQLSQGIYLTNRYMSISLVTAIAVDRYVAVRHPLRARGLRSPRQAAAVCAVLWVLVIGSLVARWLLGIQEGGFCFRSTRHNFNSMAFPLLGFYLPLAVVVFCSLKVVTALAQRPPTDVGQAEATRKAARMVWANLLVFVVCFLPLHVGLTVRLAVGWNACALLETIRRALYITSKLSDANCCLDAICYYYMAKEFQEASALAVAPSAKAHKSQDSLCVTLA

[29] = biological target: T5, G-protein coupled receptor 35; experiment: SAR analysis of Agonists of the GPR35 Receptor using an Image-Based Assay - Set 2. [Related pubchem assays (depositor defined):AID2013, AID2026]; format: functional
[30] = biological target: G-protein coupled receptor 55 (Homo sapiens, UniProt Q9Y2T6); experiment: blockade of LPI-induced GPR55 arrestin translocation – imaging, U2OS, beta-arrestin-GFP, LPI agonist, set 2, SAR follow-up (AID 2820); format: functional
G-protein coupled receptor 55, sequence (Q9Y2T6 whole entry): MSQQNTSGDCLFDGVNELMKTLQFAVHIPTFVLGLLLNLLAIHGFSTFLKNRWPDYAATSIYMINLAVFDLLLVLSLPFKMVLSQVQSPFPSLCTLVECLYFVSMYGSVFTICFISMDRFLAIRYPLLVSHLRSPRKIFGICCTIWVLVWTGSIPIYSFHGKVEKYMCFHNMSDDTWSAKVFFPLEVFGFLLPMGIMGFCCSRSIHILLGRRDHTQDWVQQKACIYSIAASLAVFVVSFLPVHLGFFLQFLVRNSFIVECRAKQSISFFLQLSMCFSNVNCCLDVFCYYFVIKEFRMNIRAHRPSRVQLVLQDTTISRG

Escherichia coli = experiment: microbe, parasite or virus in culture

For c1ccc(-c2cccc(-c3ccccn3)n2)nc1 [TERPYRIDINE], the AC50 (HEK293) was 2.11 µM (active), the CC50 [1] was 0.21 µM (active) and the IC50 (cells) was 44.9 µM (active). The EC50 [2] was 0.349 µM (active), the EC50 [3] was 16.8 µM (active) and the EC50 [4] was < 0.1 µM (active). The AC50 [5] was 1.35 µM (active), the EC50 (BJ [6]) was 4.87 µM (active) and the EC50 (BJ [7]) was 4.32 µM (inconclusive). The EC50 [8] was 2.54 µM (active), the EC50 [9] was 4.14 µM (active) and the EC50 [10] was 27.5 µM (active). The IC50 [11] was > 100 µM (inactive), the CC50 [12] was > 20 µM (active) and the EC50 [13] was 25.3 µM (active). For the same compound, the IC50 [14] was > 80 µM (inactive), the EC50 [15] was 17.1 µM (inconclusive) and the EC50 [16] was < 0.1 µM (active). The IC50 (Nonstructural protein 1) was 1.84 µM (active), the IC50 [17] was 0.716 µM (active) and the EC50 (BJ [18]) was 11.2 µM (active). For the same compound, the IC50 [19] was 0.504 µM (active), the AC50 (INS1) was < 0.195 µM (active) and the EC50 [20] was 1.32 µM (active). The CC50 [21] was 1.02 µM (active), the EC50 [22] was < 0.1 µM (active) and the IC50 [23] was 0.483 µM (active).
With COc1ccc(CNCCC(c2ccccc2)c2ccc3c(c2)OCO3)cc1 (stereo not given) the EC50 (Cannabinoid receptor 1 [24]) was > 32 µM (inactive), the IC50 (Cannabinoid receptor 1 [25]) was 5.82 µM (active) and the IC50 (Cannabinoid receptor 2 [26]) was > 32 µM (inactive). For the same compound, the EC50 (Cannabinoid receptor 2 [27]) was > 32 µM (inactive), the IC50 [28] was > 32 µM (inactive) and the EC50 [29] was > 32 µM (inactive). The IC50 [30] was 0.917 µM (active).
For O=S(=O)(c1ccc2nc(O)sc2c1)N1CCCCC1, the AC50 (Escherichia coli) was > 150 µM (inactive).
